{"source": "patent US20230248715A1", "about": "“METHOD OF TREATING ACUTE MIGRAINE WITH CGRP-ACTIVE COMPOUND” (Merck Sharp & Dohme Corp., priority 2016, published 2023)", "key": {"acute migraine": {"tested_on": "acute migraine", "assay": "Phase IIb randomized, double-blind, placebo-controlled trial of ubrogepant (MK-1602-006; NCT01613248): efficacy", "type": "in vivo, human", "protocol": "A Phase IIb, multicenter, randomized, double-blind, placebo-controlled trial was conducted (Merck Protocol MK-1602-006;published online at ClinicalTrials.gov as NCT01613248) to investigate the efficacy and safety of ubrogepant across a range of doses. The study was conducted in accordance with principles of Good Clinical Practice, and was approved by Schulman Associates Institutional Review Board Inc. Each participant provided written informed consent. This study complied with the International Headache Society's guidelines for controlled trials of drugs in migraine, including the use of two-hour pain freedom as an endpoint. The sample size was large, populations were well balanced, and demographics were reflective of the broader migraine populations, contributing to the generalizability of the trial. Participants were allocated in a double-blind fashion using a computer-generated randomized allocation schedule prepared by a blinded statistician. Randomization was stratified based on the participant's self-reported usual triptan response: oral triptan high-responder (current users of triptans who respond […]); oral triptan low-responder (current users of triptans who respond <75% of the time or those who have tried triptans but no longer use them); oral triptan naive. Numbered containers were used to implement allocation. Personnel at each study site used a central interactive voice response system to determine which container should be given to which participant. All study personnel, including investigators, site staff, participants, and sponsor staff remained blinded to treatment allocation throughout the study. Unblinding took place after data collection was complete. After being randomized, participants had up to two months to treat a qualifying migraine (as defined herein). Once the targeted number of treated participants with evaluable data was reached, study enrollment was stopped, as specified in the protocol at the sponsor's discretion. Participants who were enrolled but had not treated a migraine were asked to return their study medication and were discontinued from the study With reference to FIG. 1, eligible participants were allocated in a 1:1 ratio to one of the following treatment groups: 1, 10, 25, 50, and 100 mg of ubrogepant, or placebo. Study medication was provided to participants in a single bottle, with a single dose per bottle. Participants were instructed to take the dose when they experienced a qualifying migraine defined by the following conditions: migraine headache was moderate or severe (grade 2 or 3 on pain scale); migraine headache started less than four hours earlier; the migraine headache was a new headache that had not been previously treated and was not a recurrence of a previous migraine head ache (at least 48 hours had elapsed since the complete termination of their last attack (pain and all associated symptoms); no other migraine headache or headache had occurred in the previous 48 hours; the migraine headache was not already resolving on its own; and no prohibited medication had been taken. The onset of migraine and the results from administering the study medication were self-reported by participants using a paper diary. Headache severity was measured on the following pain scale: 0 none; 1 mild; 2 moderate; 3 severe. Participants assessed headache at baseline and then every 30 minutes up to two hours, then hourly up to four hours and at 6,8,24, and 48 hours. The primary efficacy endpoints were pain freedom at two hours post-dose (reduction in headache severity from grade 2 or 3 at baseline to grade 0) and headache response at two hours post-dose (reduction in headache severity from grade 2 or 3 at baseline to grade 1 or 0). […]"}, "[1]": {"assay": "Phase IIb randomized, double-blind, placebo-controlled trial of ubrogepant (MK-1602-006; NCT01613248): safety endpoints", "type": "in vivo, human", "protocol": "A Phase IIb, multicenter, randomized, double-blind, placebo-controlled trial was conducted (Merck Protocol MK-1602-006;published online at ClinicalTrials.gov as NCT01613248) to investigate the efficacy and safety of ubrogepant across a range of doses. The study was conducted in accordance with principles of Good Clinical Practice, and was approved by Schulman Associates Institutional Review Board Inc. Each participant provided written informed consent. This study complied with the International Headache Society's guidelines for controlled trials of drugs in migraine, including the use of two-hour pain freedom as an endpoint. The sample size was large, populations were well balanced, and demographics were reflective of the broader migraine populations, contributing to the generalizability of the trial.\nWith reference to FIG. 1, eligible participants were allocated in a 1:1 ratio to one of the following treatment groups: 1, 10, 25, 50, and 100 mg of ubrogepant, or placebo. Study medication was provided to participants in a single bottle, with a single dose per bottle. Participants were instructed to take the dose when they experienced a qualifying migraine defined by the following conditions: migraine headache was moderate or severe (grade 2 or 3 on pain scale); migraine headache started less than four hours earlier; the migraine headache was a new headache that had not been previously treated and was not a recurrence of a previous migraine head ache (at least 48 hours had elapsed since the complete termination of their last attack (pain and all associated symptoms); no other migraine headache or headache had occurred in the previous 48 hours; the migraine headache was not already resolving on its own; and no prohibited medication had been taken.\nParticipants were also monitored for safety endpoints, including standard safety assessment (medical history and physical examination; vital signs; electrocardiogram; laboratory tests including hematology, blood chemistry, and urinalysis; and female participants of childbearing potential were administered pregnancy tests) and adverse events, including any post-screening elevation in participants of aspartate amino-transferase (AST) and/or ALT, defined as: >3×upper-limit-of-normal (>3×ULN).\nFor the analysis of efficacy data, the Full-Analysis-Set population served as the primary population. […] The All-Subjects-as-Treated (ASaT) population was used for safety analyses."}}, "data": [{"molecule": "C[C@@H]1[C@H](c2ccccc2)C[C@H](NC(=O)c2cnc3c(c2)C[C@@]2(C3)C(=O)Nc3ncccc32)C(=O)N1CC(F)(F)F", "note": "[ubrogepant]", "values": [{"measurement": "two-hour pain-free rate vs placebo", "setting": "acute migraine; 25 mg, oral, two hours post-dose, nominal p value", "value": "nominally significantly higher two-hour pain-free rate than placebo"}, {"measurement": "sustained pain freedom 2-24 hours vs placebo", "setting": "acute migraine; 25 mg, oral, nominal p value", "value": "Nominally significant differences from placebo"}, {"measurement": "sustained pain relief 2-48 hours vs placebo", "setting": "acute migraine; 25 mg, oral, nominal p value", "value": "Nominally significant differences from placebo"}, {"measurement": "total migraine freedom at two hours vs placebo", "setting": "acute migraine; 25 mg, oral, nominal p value", "value": "Nominally significant differences from placebo"}, {"measurement": "two-hour pain-free rate vs placebo", "setting": "acute migraine; 50 mg, oral, two hours post-dose, nominal p value", "value": "nominally significantly higher two-hour pain-free rate than placebo"}, {"measurement": "absence of phonophobia at two hours vs placebo", "setting": "acute migraine; 50 mg, oral, nominal p value", "value": "Nominally significant differences from placebo"}, {"measurement": "absence of photophobia at two hours vs placebo", "setting": "acute migraine; 50 mg, oral, nominal p value", "value": "Nominally significant differences from placebo"}, {"measurement": "sustained pain freedom 2-24 hours vs placebo", "setting": "acute migraine; 50 mg, oral, nominal p value", "value": "Nominally significant differences from placebo"}, {"measurement": "sustained pain relief 2-24 hours vs placebo", "setting": "acute migraine; 50 mg, oral, nominal p value", "value": "Nominally significant differences from placebo"}, {"measurement": "sustained pain relief 2-48 hours vs placebo", "setting": "acute migraine; 50 mg, oral, nominal p value", "value": "Nominally significant differences from placebo"}, {"measurement": "total migraine freedom 2-24 hours vs placebo", "setting": "acute migraine; 50 mg, oral, nominal p value", "value": "Nominally significant differences from placebo"}, {"measurement": "total migraine freedom at two hours vs placebo", "setting": "acute migraine; 50 mg, oral, nominal p value", "value": "Nominally significant differences from placebo"}, {"measurement": "two-hour pain freedom vs placebo", "setting": "acute migraine; 100 mg, oral, two hours post-dose", "value": "statistically significant superiority to placebo"}, {"measurement": "secondary endpoints vs placebo", "setting": "acute migraine; 100 mg, oral, nominal p values", "value": "nominally significant improvements vs placebo on all secondary endpoints except absence of nausea at two hours"}, {"measurement": "treatment effects across most endpoints (all efficacy data)", "setting": "acute migraine; 25-mg, 50-mg, and 100-mg doses", "value": "consistent positive treatment effects"}, {"measurement": "response trend across ubrogepant doses, proportion of participants who achieved two-hour pain freedom", "setting": "acute migraine; oral tablet, single dose, 1, 10, 25, 50, 100 mg, p<0.001 for trend test", "value": "positive response trend"}, {"measurement": "dose dependence of AEs", "setting": "[1]; 1-100 mg single dose", "value": "No AEs showed clear dose dependence"}, {"measurement": "incidence of AEs within the 14 days post-dose", "setting": "[1]; compared with incidence within 48 hours", "value": "generally similar to the incidence within 48 hours"}, {"measurement": "other abnormal laboratory values", "setting": "[1]; single dose", "value": "no other abnormal laboratory values of clinical relevance"}, {"measurement": "post-treatment elevations of ALT >3×ULN", "setting": "[1]; single dose", "value": "no observed post-treatment elevations"}, {"measurement": "liver enzyme increases", "setting": "[1]; single-dose study", "value": "no liver enzyme increases clearly attributable to administration of ubrogepant"}, {"measurement": "tolerability on administration", "setting": "[1]; summary statement", "value": "well-tolerated"}]}]}
